Laboratory results reported in ChEMBL document CHEMBL1201862, “PubChem BioAssay data set” (2004).
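Exposure lasted 48 hours, with cells grown in 96-well plates and compounds tested at five concentrations. At the GI50, growth is halved.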 Activity calls are given as the source filed them. Cut-off read from the data, not from the text of the source: active = GI50 up to about 1.1 µM and inactive = higher.

Legend:
Assay in all cases: inhibition of tumour cell growth, NCI panel, 48 h
[1] = test system: SNB-75
[2] = test system: 786-0
[3] = test system: OVCAR-8
[4] = test system: SR
[5] = test system: SK-MEL-2
[6] = test system: HT-29
[7] = test system: UACC-62
[8] = test system: RPMI-8226
[9] = test system: OVCAR-5
[10] = test system: K562
[11] = test system: DU-145
[12] = test system: UACC-257
[13] = test system: SK-MEL-28
[14] = test system: NCI-H522
[15] = test system: COLO 205
[16] = test system: SF-268
[17] = test system: T47D
[18] = test system: HOP-92
[19] = test system: MDA-MB-435
[20] = test system: MDA-MB-231

Row | SMILES | GI50 [1] | GI50 [2] | GI50 [3] | GI50 [4] | GI50 [5] | GI50 [6] | GI50 [7] | GI50 [8] | GI50 [9] | GI50 [10] | GI50 [11] | GI50 [12] | GI50 [13] | GI50 [14] | GI50 [15] | GI50 [16] | GI50 [17] | GI50 [18] | GI50 [19] | GI50 [20]
1 | Cc1n[nH]c(C(F)(F)F)c1/N=N/N1CCOCC1 | 12.5 µM (inactive) | 2.63 µM (inactive) | 3.76 µM (inactive) | 1.24 µM (inactive) | 13.1 µM (inactive) | 3.24 µM (inactive) | 11 µM (inactive) | 0.873 µM (active) | 6.37 µM (inactive) | 1.08 µM (active) | 4.59 µM (inactive) | 9.77 µM (inactive) | 14.7 µM (inactive) | 3.94 µM (inactive) | 4.69 µM (inactive) | 13.1 µM (inactive) | 3.27 µM (inactive) | 2.42 µM (inactive) | 12.2 µM (inactive) | 12.8 µM (inactive)
2 | COc1cc(Br)c(CC2C3=C(CCN2C(=O)C2CCC2)CC2(CC3)OCCO2)cc1O (stereo not given) | 17.2 µM (inactive) | 89.9 µM (inactive) | > 100 µM (inactive) | 28.1 µM (inactive) | > 100 µM (inactive) | 24.2 µM (inactive) | 53.8 µM (inactive) | 36.6 µM (inactive) | > 100 µM (inactive) | 31.6 µM (inactive) | > 100 µM (inactive) | 32.5 µM (inactive) | 93.5 µM (inactive) | 27.7 µM (inactive) | 18.2 µM (inactive) | 83.9 µM (inactive) | 29.9 µM (inactive) | 56.4 µM (inactive) | 23.6 µM (inactive) | 87.1 µM (inactive)
3 | CC1(C)CCC[C@@]2(C)C1CC[C@@]1(CO)O[C@H](C3=CC(=O)OC3O)C[C@H]12 (stereo not given in full) | 15.3 µM (inactive) | 15 µM (inactive) | 15.6 µM (inactive) | 2.71 µM (inactive) | 14.4 µM (inactive) | 13 µM (inactive) | 3.89 µM (inactive) | 3.87 µM (inactive) | 22.8 µM (inactive) | 4.76 µM (inactive) | 13.3 µM (inactive) | 14.9 µM (inactive) | 11.4 µM (inactive) | 3.69 µM (inactive) | 11.1 µM (inactive) | 19.7 µM (inactive) | 12.2 µM (inactive) | 19.1 µM (inactive) | 11.5 µM (inactive) | 18.8 µM (inactive)
